Converted amounts (≈) assume the structure as drawn.
How the values were obtained:
[1] = in vitro; details: mouse
Method: (§1) The cells are grown in humidified incubators at 37° C. in an atmosphere of 5% carbon dioxide/air (v/v).

[2] = in vitro cytotoxicity, plating efficiency; details: mouse
Method: as §1

## CC(=O)Nc1ccc(O)cc1 [acetaminophen]
[1]
  CC50: 1000 µg/mL (≈ 6.62 mM)

## CC(=O)Oc1ccccc1C(=O)O [aspirin]
[1]
  CC50: 1500 µg/mL (≈ 8.33 mM)

## O=BOB(O)OB(O)OB=O [borax]
[2]
  CC50: 2000 µg/mL (≈ 12.7 mM)

— US20070202138A1, “ANTIMICROBIAL COMPOSITIONS AND METHOD” (BIOFILM INNOVATIONS GROUP, LLC, priority 2006, published 2007)
